Calls of active or inactive are those of the source. No cut-off for these calls is given here.
Experiments:
[1] = biological target: T1, Sodium channel protein type 9 subunit alpha (Homo sapiens, UniProt Q15858); assay: Inhibition of human Nav1.7 expressed in HEK293 cells at 10 uM measured for 48 hrs by whole-cell patch clamp electrophysiology assay; format: cell-based
Target sequence in this assay (Q15858 whole entry, looked up): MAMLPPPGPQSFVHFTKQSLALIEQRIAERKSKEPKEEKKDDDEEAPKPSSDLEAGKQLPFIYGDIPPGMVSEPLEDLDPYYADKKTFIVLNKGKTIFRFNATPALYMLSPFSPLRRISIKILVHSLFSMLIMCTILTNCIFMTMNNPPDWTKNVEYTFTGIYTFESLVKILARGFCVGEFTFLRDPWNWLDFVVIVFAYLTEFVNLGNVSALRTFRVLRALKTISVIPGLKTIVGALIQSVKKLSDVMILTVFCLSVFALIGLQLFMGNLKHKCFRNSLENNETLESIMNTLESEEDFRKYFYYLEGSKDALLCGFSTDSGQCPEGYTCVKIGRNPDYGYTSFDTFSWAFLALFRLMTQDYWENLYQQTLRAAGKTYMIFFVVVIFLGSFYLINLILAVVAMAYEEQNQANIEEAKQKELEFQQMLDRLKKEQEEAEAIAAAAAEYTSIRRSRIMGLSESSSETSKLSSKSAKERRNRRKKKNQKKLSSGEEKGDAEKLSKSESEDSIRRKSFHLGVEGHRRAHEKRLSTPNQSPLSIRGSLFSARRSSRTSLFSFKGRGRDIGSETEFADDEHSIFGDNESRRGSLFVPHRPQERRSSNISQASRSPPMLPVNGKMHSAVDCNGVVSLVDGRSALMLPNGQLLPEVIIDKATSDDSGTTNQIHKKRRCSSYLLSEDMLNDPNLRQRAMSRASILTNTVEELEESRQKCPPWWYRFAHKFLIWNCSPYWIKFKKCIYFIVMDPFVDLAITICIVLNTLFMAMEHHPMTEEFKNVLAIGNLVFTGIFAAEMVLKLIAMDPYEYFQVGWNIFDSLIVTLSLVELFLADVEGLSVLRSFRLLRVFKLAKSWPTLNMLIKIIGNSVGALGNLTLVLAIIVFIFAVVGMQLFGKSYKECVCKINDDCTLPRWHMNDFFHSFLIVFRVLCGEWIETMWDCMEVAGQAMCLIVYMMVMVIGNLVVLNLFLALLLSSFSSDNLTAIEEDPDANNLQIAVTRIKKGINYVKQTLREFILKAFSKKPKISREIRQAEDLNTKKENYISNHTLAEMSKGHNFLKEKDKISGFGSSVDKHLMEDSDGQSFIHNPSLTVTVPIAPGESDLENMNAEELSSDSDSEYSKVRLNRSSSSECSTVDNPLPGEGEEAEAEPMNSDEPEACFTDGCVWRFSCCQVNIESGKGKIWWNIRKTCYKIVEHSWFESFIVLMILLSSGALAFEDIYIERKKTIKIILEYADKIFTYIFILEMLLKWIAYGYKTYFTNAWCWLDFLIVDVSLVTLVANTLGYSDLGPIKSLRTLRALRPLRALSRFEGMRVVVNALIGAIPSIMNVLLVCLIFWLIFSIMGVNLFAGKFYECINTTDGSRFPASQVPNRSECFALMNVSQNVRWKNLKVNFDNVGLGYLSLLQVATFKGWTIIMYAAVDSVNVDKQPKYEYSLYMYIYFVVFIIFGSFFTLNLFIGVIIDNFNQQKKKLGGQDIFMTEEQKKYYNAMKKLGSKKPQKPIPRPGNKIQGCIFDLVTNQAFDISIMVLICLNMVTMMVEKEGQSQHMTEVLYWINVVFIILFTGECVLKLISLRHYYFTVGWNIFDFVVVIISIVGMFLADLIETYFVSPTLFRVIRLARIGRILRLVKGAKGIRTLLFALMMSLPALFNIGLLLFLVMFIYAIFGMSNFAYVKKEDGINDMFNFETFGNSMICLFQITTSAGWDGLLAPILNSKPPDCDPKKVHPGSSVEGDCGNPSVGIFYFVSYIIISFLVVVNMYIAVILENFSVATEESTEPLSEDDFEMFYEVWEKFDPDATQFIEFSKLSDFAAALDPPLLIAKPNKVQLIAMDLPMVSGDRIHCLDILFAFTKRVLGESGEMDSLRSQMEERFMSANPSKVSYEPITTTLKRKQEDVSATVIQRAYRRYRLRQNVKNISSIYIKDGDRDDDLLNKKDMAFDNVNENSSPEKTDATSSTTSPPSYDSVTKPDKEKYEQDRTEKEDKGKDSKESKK

[2] = biological target: T1, Sodium channel protein type 9 subunit alpha; assay: Inhibition of Nav1.7 (unknown origin) by whole-cell patch clamp assay
Target sequence in this assay (Q15858 whole entry): as the sequence (Q15858 whole entry, looked up) above

[3] = biological target: T1, Sodium channel protein type 9 subunit alpha; assay: Inhibition of human Nav1.7 expressed in HEK293 cells at 1 uM measured for 48 hrs by whole-cell patch clamp electrophysiology assay; format: cell-based
Target sequence in this assay (Q15858 whole entry, looked up): as above

Mus musculus [4] = assay: Antinociceptive activity in Kunming mouse at 20 mg/kg,ip measured for 1 to 4 hrs after administration by hot plate test; format: functional, organism-based; details: time 1-4 hrs
Homo sapiens = species: Homo sapiens; assay: Selectivity ratio of IC50 for inhibition of Nav1.7 (unknown origin) to IC50 for inhibition of Nav1.4 (unknown origin)
[5] = biological target: Sodium channel protein type 4 subunit alpha (Homo sapiens, UniProt P35499); assay: Inhibition of Nav1.4 (unknown origin) by whole-cell patch clamp assay
[6] = biological target: Sodium channel protein type 5 subunit alpha (Homo sapiens, UniProt Q14524); assay: Inhibition of Nav1.5 (unknown origin) by whole-cell patch clamp assay
Sodium channel protein type 5 subunit alpha, sequence (Q14524 whole entry): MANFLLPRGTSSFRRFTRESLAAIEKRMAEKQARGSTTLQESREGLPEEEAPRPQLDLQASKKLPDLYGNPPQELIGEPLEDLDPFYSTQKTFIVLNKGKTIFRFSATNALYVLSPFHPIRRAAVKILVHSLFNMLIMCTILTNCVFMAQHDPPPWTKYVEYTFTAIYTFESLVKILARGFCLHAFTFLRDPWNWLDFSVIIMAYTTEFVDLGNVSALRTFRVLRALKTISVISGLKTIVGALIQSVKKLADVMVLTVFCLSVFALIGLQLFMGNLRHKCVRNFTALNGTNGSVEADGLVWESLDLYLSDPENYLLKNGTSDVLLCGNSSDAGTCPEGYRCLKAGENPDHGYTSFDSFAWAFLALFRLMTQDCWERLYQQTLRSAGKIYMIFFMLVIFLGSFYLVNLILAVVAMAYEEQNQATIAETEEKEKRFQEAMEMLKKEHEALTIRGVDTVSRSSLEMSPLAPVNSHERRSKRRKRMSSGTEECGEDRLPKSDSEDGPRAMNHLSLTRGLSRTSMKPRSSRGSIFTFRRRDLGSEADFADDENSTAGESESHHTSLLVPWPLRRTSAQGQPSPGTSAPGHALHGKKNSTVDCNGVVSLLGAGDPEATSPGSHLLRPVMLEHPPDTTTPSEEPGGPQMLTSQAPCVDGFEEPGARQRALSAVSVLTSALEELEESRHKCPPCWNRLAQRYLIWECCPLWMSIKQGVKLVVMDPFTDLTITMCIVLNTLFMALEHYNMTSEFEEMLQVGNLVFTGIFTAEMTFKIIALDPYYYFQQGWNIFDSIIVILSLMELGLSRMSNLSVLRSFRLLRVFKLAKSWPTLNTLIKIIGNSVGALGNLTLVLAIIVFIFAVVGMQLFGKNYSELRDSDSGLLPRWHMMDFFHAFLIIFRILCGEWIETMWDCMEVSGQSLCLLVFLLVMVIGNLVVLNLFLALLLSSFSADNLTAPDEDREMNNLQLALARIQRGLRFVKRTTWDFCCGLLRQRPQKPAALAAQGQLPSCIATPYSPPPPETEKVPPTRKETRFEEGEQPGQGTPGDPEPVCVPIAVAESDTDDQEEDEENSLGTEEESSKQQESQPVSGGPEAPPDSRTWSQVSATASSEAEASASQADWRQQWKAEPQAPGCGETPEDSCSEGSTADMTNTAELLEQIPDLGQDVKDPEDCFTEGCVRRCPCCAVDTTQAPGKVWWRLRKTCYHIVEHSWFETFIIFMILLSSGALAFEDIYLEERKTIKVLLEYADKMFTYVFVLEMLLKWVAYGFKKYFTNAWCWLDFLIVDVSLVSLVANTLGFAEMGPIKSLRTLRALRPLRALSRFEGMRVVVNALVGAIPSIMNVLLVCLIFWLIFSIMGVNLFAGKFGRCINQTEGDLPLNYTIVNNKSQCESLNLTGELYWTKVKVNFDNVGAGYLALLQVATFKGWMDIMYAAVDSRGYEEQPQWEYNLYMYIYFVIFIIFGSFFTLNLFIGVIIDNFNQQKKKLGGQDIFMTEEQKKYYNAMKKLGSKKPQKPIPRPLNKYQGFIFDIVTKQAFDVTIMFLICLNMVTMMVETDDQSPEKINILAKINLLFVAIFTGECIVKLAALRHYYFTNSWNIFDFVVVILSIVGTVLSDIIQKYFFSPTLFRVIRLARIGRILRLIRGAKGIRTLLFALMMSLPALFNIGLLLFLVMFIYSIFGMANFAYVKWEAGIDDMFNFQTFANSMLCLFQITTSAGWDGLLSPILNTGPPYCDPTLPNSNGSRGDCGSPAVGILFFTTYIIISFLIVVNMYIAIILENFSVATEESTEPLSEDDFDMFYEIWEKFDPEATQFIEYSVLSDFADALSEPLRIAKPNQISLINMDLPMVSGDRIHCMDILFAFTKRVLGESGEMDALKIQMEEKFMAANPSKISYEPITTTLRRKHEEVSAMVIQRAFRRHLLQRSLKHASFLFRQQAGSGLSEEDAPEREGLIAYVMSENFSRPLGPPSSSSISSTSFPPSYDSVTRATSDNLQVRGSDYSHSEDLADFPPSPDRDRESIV

[7] = Sedative activity in Kunming mouse assessed as effect on spontaneous locomotor activity at 20 mg/kg,ip administrated for 2 hrs and measured for 30 mins by open field test; format: toxicity, organism-based; details: in vivo, 2.5 h
Mus musculus [8] = assay: Antinociceptive activity in Kunming mouse assessed as inhibition of acetic acid-induced abdominal constrictions at 10 to 40 mg/kg,ip pre-administrated for 2 hrs followed by acetic acid induction and measured for 15 mins by writhing test; format: functional, organism-based; details: dose 10-40 mg/kg, time 135.0 min
Mus musculus [9] = assay: Antinociceptive activity in Kunming mouse at 40 mg/kg,ip measured for 1 to 4 hrs after administration by hot plate test; format: functional, organism-based; details: time 1-4 hrs
Mus musculus [10] = assay: Antinociceptive activity in Kunming mouse at 10 mg/kg,ip measured for 1 to 4 hrs after administration by hot plate test; format: functional, organism-based; details: time 1-4 hrs

Compound	inhibition [1]	inhibition [3]	also measured
O=C(NS(=O)(=O)C1CC1)c1ccc(OC2CC3(CCNCC3)C2)cc1	15.4%	–	–
Cc1cc(C(=O)NS(=O)(=O)C2CC2)c(F)cc1OCCC1CCC2(CCN(Cc3ccccc3)CC2)C1 (stereo not given)	101%	–	IC50 [2]: 1040 nM
O=C(NS(=O)(=O)C1CC1)c1cc(Cl)c(OCCC2CCC3(CCN(Cc4cccc(C(F)(F)F)c4)CC3)C2)cc1F (stereo not given)	55.9%	16.1%	–
O=C(NS(=O)(=O)C1CC1)c1ccc(OC2CCC3(CCNCC3)C2)cc1 (stereo not given)	71.4%	–	–
O=C(NS(=O)(=O)C1CC1)c1ccc(OCC2CCC3(CCN(Cc4ccccc4)CC3)C2)cc1 (stereo not given)	57.4%	–	–
O=C(NS(=O)(=O)C1CC1)c1ccc(OCCC2CCC3(CCNCC3)C2)cc1 (stereo not given)	8.4%	–	–
O=C(NS(=O)(=O)C1CC1)c1ccc(OC2CCC3(CC2)CCN(Cc2ccccc2)CC3)cc1	13.7%	–	–
C[C@H](NCc1ccc(OCc2ccccc2F)cc1)C(N)=O [RALFINAMIDE]	30.9%	12.5%	Activity (Mus musculus [4]): Active; IC50 [2]: 35200 nM
O=C(NS(=O)(=O)C1CC1)c1cc(Cl)c(OCCC2CCC3(CCN(Cc4cccc5ccccc45)CC3)C2)cc1F (stereo not given)	97.1%	33.5%	–
O=C(NS(=O)(=O)C1CC1)c1cc(Cl)c(OCCC2CCC3(CCN(Cc4ccco4)CC3)C2)cc1F (stereo not given)	97.6%	60%	IC50 [2]: 610 nM
O=C(NS(=O)(=O)C1CC1)c1cc(Cl)c(OCCC2CCC3(CCN(Cc4ccc(Cl)cc4)CC3)C2)cc1F (stereo not given)	87.2%	23.8%	–
O=C(NS(=O)(=O)C1CC1)c1cc(Cl)c(OCCC2CCC3(CCN(CC4CCCCC4)CC3)C2)cc1F (stereo not given)	65.5%	20.1%	–
CCN1CCC2(CCC(CCOc3cc(F)c(C(=O)NS(=O)(=O)C4CC4)cc3Cl)C2)CC1 (stereo not given)	24.3%	–	–
O=C(NS(=O)(=O)C1CC1)c1cc(Cl)c(OCCC2CCC3(CCN(CCc4ccccc4)CC3)C2)cc1F (stereo not given)	75.1%	27.5%	–
CCN1CCC2(CCC(Oc3ccc(C(=O)NS(=O)(=O)C4CC4)cc3)C2)CC1 (stereo not given)	16.8%	–	–
O=C(NS(=O)(=O)C1CC1)c1cc(Cl)c(OCCC2CCC3(CCN(CCCc4ccccc4)CC3)C2)cc1F (stereo not given)	72.8%	21.2%	–
CCN1CCC2(CC1)CC(Oc1ccc(C(=O)NS(=O)(=O)C3CC3)cc1)C2	14.3%	–	–

Compound	inhibition [1]	inhibition [3]	also measured
O=C(NS(=O)(=O)C1CC1)c1ccc(OC2CC3(CCN(Cc4ccccc4)CC3)C2)cc1	21.5%	–	–
CCN1CCC2(CCC(Oc3ccc(C(=O)NS(=O)(=O)C4CC4)cc3)CC2)CC1	22.9%	–	–
O=C(NS(=O)(=O)C1CC1)c1cc(Cl)c(OCCC2(F)CCN(Cc3cc(Cl)cc(Cl)c3)CC2)cc1F	89.6%	–	Ratio IC50 (Homo sapiens): 3; IC50 [5]: 2700 nM; IC50 [6]: 58900 nM; IC50 [2]: 1010 nM
CCc1ccc(CN2CCC3(CCC(CCOc4cc(F)c(C(=O)NS(=O)(=O)C5CC5)cc4Cl)C3)CC2)cc1 (stereo not given)	93.9%	29.4%	–
CCN1CCC2(CCC(COc3ccc(C(=O)NS(=O)(=O)C4CC4)cc3)C2)CC1 (stereo not given)	1.4%	–	–
CCN1CCC2(CCC(CCOc3ccc(C(=O)NS(=O)(=O)C4CC4)cc3)C2)CC1 (stereo not given)	24.2%	–	–
O=C(NS(=O)(=O)C1CC1)c1cc(Cl)c(OCCC2CCC3(CCN(Cc4ccsc4)CC3)C2)cc1F (stereo not given)	95.9%	61.4%	IC50 [6]: 54700 nM; IC50 [2]: 840 nM
O=C(NS(=O)(=O)C1CC1)c1ccc(OCC2CCC3(CCNCC3)C2)cc1 (stereo not given)	0.2%	–	–
O=C(NS(=O)(=O)C1CC1)c1ccc(OC2CCC3(CCNCC3)CC2)cc1	11.2%	–	–
O=C(NS(=O)(=O)C1CC1)c1cc(C2CC2)c(OCCC2CCC3(CCN(Cc4ccccc4)CC3)C2)cc1F (stereo not given)	96.5%	–	–
O=C(NS(=O)(=O)C1CC1)c1ccc(OC2CCC3(CCN(Cc4ccccc4)CC3)C2)cc1 (stereo not given)	45.7%	–	–
O=C(NS(=O)(=O)C1CC1)c1cc(Cl)c(OCCC2CCC3(CCN(Cc4cc(Cl)cc(Cl)c4)CC3)C2)cc1F (stereo not given)	77.2%	–	–
COc1ccc(CN2CCC3(CCC(CCOc4cc(F)c(C(=O)NS(=O)(=O)C5CC5)cc4Cl)C3)CC2)cc1 (stereo not given)	89.3%	31.1%	–
O=C(NS(=O)(=O)C1CC1)c1ccc(OCCC2CCC3(CCN(Cc4ccccc4)CC3)C2)cc1 (stereo not given)	92%	–	–
O=C(NS(=O)(=O)C1CC1)c1cc(F)c(OCCC2CCC3(CCN(Cc4ccccc4)CC3)C2)cc1F (stereo not given)	99.7%	–	IC50 [2]: 1150 nM
O=C(NS(=O)(=O)C1CC1)c1cc(Cl)c(OCCC2CCC3(CCN(Cc4ccccc4)CC3)C2)cc1F (stereo not given)	102%	70.8%	Activity (Mus musculus [4]): Active; Activity [7]: Non-Toxic; Ratio IC50 (Homo sapiens): 10; Activity (Mus musculus [8]): Dose-Dependent Effect; IC50 [5]: 4880 nM; Activity (Mus musculus [9]): inactive; IC50 [6]: 46200 nM; Activity (Mus musculus [10]): inactive; IC50 [2]: 460 nM

Source: ChEMBL document CHEMBL5257116, “Design, synthesis, and biological evaluation of acyl sulfonamide derivatives with spiro cycles as NaV1.7 inhibitors for antinociception” (Bioorg Med Chem, 2023)
